Assay results as given in PubChem BioAssay AID493119 (Broad Institute, 2011).
Values joined by “and” are separate entries in the source; they are usually repeats but may differ in a detail not shown here. Equal values may be shown once.

tested on: V. harveyi MM32 (LuxS-), AI-2-induced luminescence, 5 h; experiment: AI-2 driven bioluminescence decrease, LuxPQ pathway – strain MM32 LuxS-null, luminescence, dry powder, set 2, mechanism study for V. harveyi quorum sensing inhibitors, dose response (AID 493119)

Row | Compound | AC50
1 | Cc1cccc(NC(=O)c2ccc(Oc3ccccc3)cc2)n1 | 6550 nM
2 | COc1cc(NC(=O)CN2C(=O)NC(c3ccccc3)(c3ccccc3)C2=O)cc(OC)c1 | 1170 nM and 1130 nM
3 | CCc1ccc(S(=O)(=O)Nc2ccc(Br)cn2)cc1 | 2000 nM
4 | C=Cn1c(C(=O)O)ccc1-c1ccc(CC)cc1 | 1720 nM and 1570 nM
5 | Cn1cnc(S(=O)(=O)Nc2ccc(OC(F)(F)F)cc2)c1 | 1880 nM and 2280 nM
6 | O=C1C=C/C(=C/Br)O1 | 3970 nM
7 | Cc1cccc(NS(=O)(=O)c2ccc(Oc3ccccc3)cc2)n1 | 1290 nM and 1610 nM
